Data reported in patent US11377442B2, “Small molecule agonists and antagonists of NR2F6 activity” (ZANDER THERAPEUTICS, INC., priority 2016, dated 2022).
Several values for one entry are separate records, joined by “and”; a condition that tells them apart may be missing. Identical values can stand only once. Like-named read-outs stand apart in the source and are kept apart here. One block for each compound: values may come before it.

Legend:
Type in all cases: cell-based
[1] = test system: Renilla; assay: Renilla signal in NR2F6 agonist screening, cmpd/DMSO; conditions: Renilla, F4
[2] = biological target: T1, NR2F6 LBD (Homo sapiens, UniProt P10588); assay: NR2F6 LBD transient transfection; conditions: LBD
T1 construct: expressed in transfected cells
T1 sequence (P10588 165-393 limits assumed): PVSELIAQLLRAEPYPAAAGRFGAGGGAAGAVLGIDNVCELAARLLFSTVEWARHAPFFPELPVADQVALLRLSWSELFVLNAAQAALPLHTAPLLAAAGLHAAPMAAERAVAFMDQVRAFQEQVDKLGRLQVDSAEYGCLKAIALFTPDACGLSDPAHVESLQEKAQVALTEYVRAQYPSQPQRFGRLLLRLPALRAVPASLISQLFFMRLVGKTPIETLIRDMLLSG
How it was run: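 LBD-transfected cells treated at 40, 10, 2 and 0.5 μM (4 replicates); cytotoxicity measured in parallel, normalized to DMSO (0%) and zero signal (100%). Higher concentrations excluded where signal loss reflected toxicity.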

[3] = biological target: T2, NR2F6 (Homo sapiens, UniProt P10588); assay: NR2F6 agonist screening, Firefly signal cmpd/DMSO
T2 construct: expressed in transfected cells; also transient transfection
T2 sequence (P10588 1-404): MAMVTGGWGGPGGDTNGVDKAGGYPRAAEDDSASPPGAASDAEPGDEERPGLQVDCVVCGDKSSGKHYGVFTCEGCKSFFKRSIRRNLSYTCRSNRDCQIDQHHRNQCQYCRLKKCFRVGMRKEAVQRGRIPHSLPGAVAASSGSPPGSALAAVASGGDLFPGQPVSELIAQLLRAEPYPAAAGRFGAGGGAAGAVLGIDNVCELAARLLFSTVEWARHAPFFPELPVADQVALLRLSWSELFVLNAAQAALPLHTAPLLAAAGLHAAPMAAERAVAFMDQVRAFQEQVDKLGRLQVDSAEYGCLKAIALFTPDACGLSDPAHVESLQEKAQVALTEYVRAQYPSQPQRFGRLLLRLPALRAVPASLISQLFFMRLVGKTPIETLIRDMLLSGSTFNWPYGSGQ

[4] = test system: HEK293 pGL4; assay: Firefly_pGL signal, cmpd/DMSO (pGL4 control cells); conditions: Homo sapiens
[5] = read-out: Renilla, F4, cmpd/DMSO (mean)
[6] = 1% FBS, read-out: Renilla, F4, 1% FBS, cmpd/DMSO (mean)
[7] = 10% FBS, read-out: Renilla, F4, 10% FBS, cmpd/DMSO (mean)
[8] = HEK293, 0.5 uM, pGL4, read-out: Firefly pGL4, cmpd/DMSO (mean)
[9] = HEK293, 2 uM, pGL4, read-out: Firefly pGL4, cmpd/DMSO (mean)
[10] = HEK293, 10 uM, pGL4, read-out: Firefly pGL4, cmpd/DMSO (mean)
[11] = HEK293, 40 uM, pGL4, read-out: Firefly pGL4, cmpd/DMSO (mean)
[12] = HEK293, pGL4, 1% FBS, 0.5 uM, read-out: Firefly, pGL4, 1% FBS, cmpd/DMSO (mean)
[13] = HEK293, pGL4, 1% FBS, 2 uM, read-out: Firefly, pGL4, 1% FBS, cmpd/DMSO (mean)
[14] = HEK293, pGL4, 1% FBS, 10 uM, read-out: Firefly, pGL4, 1% FBS, cmpd/DMSO (mean)
[15] = HEK293, pGL4, 1% FBS, 40 uM, read-out: Firefly, pGL4, 1% FBS, cmpd/DMSO (mean)
[16] = HEK293, pGL4, 10% FBS, 0.5 uM, read-out: Firefly, pGL4, 10% FBS, cmpd/DMSO (mean)
[17] = HEK293, pGL4, 10% FBS, 2 uM, read-out: Firefly, pGL4, 10% FBS, cmpd/DMSO (mean)
[18] = HEK293, pGL4, 10% FBS, 10 uM, read-out: Firefly, pGL4, 10% FBS, cmpd/DMSO (mean)
[19] = HEK293, pGL4, 10% FBS, 40 uM, read-out: Firefly, pGL4, 10% FBS, cmpd/DMSO (mean)

- Firefly LBD, cmpd/DMSO (mean) ([2]; 0.5 uM): 1.6
- Firefly LBD, cmpd/DMSO (mean) ([2]; 2 uM): 1.5
- Firefly LBD, cmpd/DMSO (mean) ([2]; 10 uM): 2.9
- Firefly LBD, cmpd/DMSO (mean) ([2]; 40 uM): 2.1
- Firefly F4, cmpd/DMSO (mean) ([3]; 0.5 uM): 1.0
- Firefly F4, cmpd/DMSO (mean) ([3]; 2 uM): 1.8
- Firefly F4, cmpd/DMSO (mean) ([3]; 10 uM): 4.5
- Firefly F4, cmpd/DMSO (mean) ([3]; 40 uM): 2.3
- F4, Firefly/Renilla for S/B(F4) > 3 ([3]; 1% FBS, 10 uM): 2.0
- Firefly, F4/pGL4 for S/B(F4) > 3 ([3]; 1% FBS, 10 uM): 1.6
- F4, Firefly/Renilla for S/B(F4) > 3 ([3]; 10% FBS, 40 uM): 3.0
- Firefly, F4/pGL4 for S/B(F4) > 3 ([3]; 10% FBS, 40 uM): 2.1
- Firefly, F4, 1% FBS, cmpd/DMSO (mean) ([3]; 1% FBS, 0.5 uM): 0.7
- Firefly, F4, 1% FBS, cmpd/DMSO (mean) ([3]; 1% FBS, 2 uM): 1.5
- Firefly, F4, 1% FBS, cmpd/DMSO (mean) ([3]; 1% FBS, 10 uM): 3.1
- Firefly, F4, 1% FBS, cmpd/DMSO (mean) ([3]; 1% FBS, 40 uM): 0.6
- Firefly, F4, 10% FBS, cmpd/DMSO (mean) ([3]; 10% FBS, 0.5 uM): 1.4
- Firefly, F4, 10% FBS, cmpd/DMSO (mean) ([3]; 10% FBS, 2 uM): 1.0
- Firefly, F4, 10% FBS, cmpd/DMSO (mean) ([3]; 10% FBS, 10 uM): 2.9
- Firefly, F4, 10% FBS, cmpd/DMSO (mean) ([3]; 10% FBS, 40 uM): 8.3
Compound: COCCCN[C@H]1CS(=O)(=O)C[C@@H]1S(=O)(=O)c1ccc(Cl)cc1 [Compound D126]
- fold induction at 0.5 µM [1, 5]: 1.1
- fold induction at 2 µM [1, 5]: 1.2
- fold induction at 10 µM [1, 5]: 1.6
- fold induction at 40 µM [1, 5]: 1.6
- fold induction at 0.5 µM [1, 6]: 1.2
- fold induction at 2 µM [1, 6]: 1.2
- fold induction at 10 µM [1, 6]: 1.5
- fold induction at 40 µM [1, 6]: 1.8
- fold induction at 0.5 µM [1, 7]: 1
- fold induction at 2 µM [1, 7]: 1.1
- fold induction at 10 µM [1, 7]: 1.7
- fold induction at 40 µM [1, 7]: 2.8
- fold induction at 0.5 µM [4, 8]: 1.2
- fold induction at 2 µM [4, 9]: 1.2
- fold induction at 10 µM [4, 10]: 3
- fold induction at 40 µM [4, 11]: 0.8
- fold induction at 0.5 µM [4, 12]: 1.4
- fold induction at 2 µM [4, 13]: 1.8
- fold induction at 10 µM [4, 14]: 2
- fold induction at 40 µM [4, 15]: 1.6
- fold induction at 0.5 µM [4, 16]: 1.1
- fold induction at 2 µM [4, 17]: 1.1
- fold induction at 10 µM [4, 18]: 1.8
- fold induction at 40 µM [4, 19]: 3.9

- Firefly LBD, cmpd/DMSO (mean) ([2]; 0.5 uM): 1.2
- Firefly LBD, cmpd/DMSO (mean) ([2]; 2 uM): 1.2
- Firefly LBD, cmpd/DMSO (mean) ([2]; 10 uM): 2.3
- Firefly LBD, cmpd/DMSO (mean) ([2]; 40 uM): 2.1
- Firefly F4, cmpd/DMSO (mean) ([3]; 0.5 uM): 1.2
- Firefly F4, cmpd/DMSO (mean) ([3]; 2 uM): 1.1
- Firefly F4, cmpd/DMSO (mean) ([3]; 10 uM): 2.2
- Firefly F4, cmpd/DMSO (mean) ([3]; 40 uM): 2.0
- F4, Firefly/Renilla for S/B(F4) > 3 ([3]; 1% FBS, 10 uM): 2.7
- Firefly, F4/pGL4 for S/B(F4) > 3 ([3]; 1% FBS, 10 uM): 1.8
- F4, Firefly/Renilla for S/B(F4) > 3 ([3]; 1% FBS, 40 uM): 1.9
- Firefly, F4/pGL4 for S/B(F4) > 3 ([3]; 1% FBS, 40 uM): 2.4
- F4, Firefly/Renilla for S/B(F4) > 3 ([3]; 10% FBS, 10 uM): 3.2
- Firefly, F4/pGL4 for S/B(F4) > 3 ([3]; 10% FBS, 10 uM): 2.1
- F4, Firefly/Renilla for S/B(F4) > 3 ([3]; 10% FBS, 40 uM): 2.1
- Firefly, F4/pGL4 for S/B(F4) > 3 ([3]; 10% FBS, 40 uM): 2.3
- Firefly, F4, 1% FBS, cmpd/DMSO (mean) ([3]; 1% FBS, 0.5 uM): 1.0 and 1.3
- Firefly, F4, 1% FBS, cmpd/DMSO (mean) ([3]; 1% FBS, 2 uM): 1.8 and 0.9
- Firefly, F4, 10% FBS, cmpd/DMSO (mean) ([3]; 10% FBS, 0.5 uM): 1.2
- Firefly, F4, 10% FBS, cmpd/DMSO (mean) ([3]; 10% FBS, 2 uM): 1.4 and 0.7
Compound: Cc1cccc(CN[C@H]2CS(=O)(=O)C[C@@H]2S(=O)(=O)c2ccc(Cl)cc2)c1 [Compound D127]
- fold induction at 0.5 µM [1, 5]: 1
- fold induction at 2 µM [1, 5]: 1
- fold induction at 10 µM [1, 5]: 1.2
- fold induction at 40 µM [1, 5]: 1.3
- fold induction at 0.5 µM [1, 6]: 1.1
- fold induction at 2 µM [1, 6]: 1.2
- fold induction at 10 µM [1, 6]: 1.8
- fold induction at 40 µM [1, 6]: 1.5
- fold induction at 0.5 µM [1, 7]: 1
- fold induction at 2 µM [1, 7]: 1.1
- fold induction at 10 µM [1, 7]: 1.7
- fold induction at 0.5 µM [4, 8]: 1
- fold induction at 2 µM [4, 9]: 1.4
- fold induction at 10 µM [4, 10]: 1.8
- fold induction at 40 µM [4, 11]: 2.6
- fold induction at 0.5 µM [4, 12]: 1.3
- fold induction at 2 µM [4, 13]: 1.9
- fold induction at 10 µM [4, 14]: 2.7
- fold induction at 0.5 µM [4, 16]: 1.2
- fold induction at 2 µM [4, 17]: 1.7
- fold induction at 10 µM [4, 18]: 2.7

- Firefly LBD, cmpd/DMSO (mean) ([2]; 0.5 uM): 1.0
- Firefly LBD, cmpd/DMSO (mean) ([2]; 2 uM): 1.1
- Firefly LBD, cmpd/DMSO (mean) ([2]; 10 uM): 2.4
- Firefly LBD, cmpd/DMSO (mean) ([2]; 40 uM): 2.6
- Firefly F4, cmpd/DMSO (mean) ([3]; 0.5 uM): 1.1
- Firefly F4, cmpd/DMSO (mean) ([3]; 2 uM): 1.7
- Firefly F4, cmpd/DMSO (mean) ([3]; 10 uM): 2.7
- Firefly F4, cmpd/DMSO (mean) ([3]; 40 uM): 3.5
- F4, Firefly/Renilla for S/B(F4) > 3 ([3]; 10% FBS, 40 uM): 2.2
- Firefly, F4/pGL4 for S/B(F4) > 3 ([3]; 10% FBS, 40 uM): 1.9
- Firefly, F4, 1% FBS, cmpd/DMSO (mean) ([3]; 1% FBS, 0.5 uM): 1.2
- Firefly, F4, 1% FBS, cmpd/DMSO (mean) ([3]; 1% FBS, 2 uM): 1.5
- Firefly, F4, 1% FBS, cmpd/DMSO (mean) ([3]; 1% FBS, 10 uM): 2.0
- Firefly, F4, 1% FBS, cmpd/DMSO (mean) ([3]; 1% FBS, 40 uM): 2.0
- Firefly, F4, 10% FBS, cmpd/DMSO (mean) ([3]; 10% FBS, 0.5 uM): 0.8
- Firefly, F4, 10% FBS, cmpd/DMSO (mean) ([3]; 10% FBS, 2 uM): 0.9
- Firefly, F4, 10% FBS, cmpd/DMSO (mean) ([3]; 10% FBS, 10 uM): 1.4
- Firefly, F4, 10% FBS, cmpd/DMSO (mean) ([3]; 10% FBS, 40 uM): 3.3
Compound: O=S1(=O)C[C@H](NCCc2cccs2)[C@@H](S(=O)(=O)c2ccc(Cl)cc2)C1 [Compound D128]
- fold induction at 0.5 µM [1, 5]: 1
- fold induction at 2 µM [1, 5]: 1.2
- fold induction at 10 µM [1, 5]: 1.4
- fold induction at 40 µM [1, 5]: 1.6
- fold induction at 0.5 µM [1, 6]: 1.2
- fold induction at 2 µM [1, 6]: 1.1
- fold induction at 10 µM [1, 6]: 1.6
- fold induction at 40 µM [1, 6]: 1.7
- fold induction at 0.5 µM [1, 7]: 0.9
- fold induction at 2 µM [1, 7]: 1
- fold induction at 10 µM [1, 7]: 1.1
- fold induction at 40 µM [1, 7]: 1.5
- fold induction at 0.5 µM [4, 8]: 1.2
- fold induction at 2 µM [4, 9]: 1.6
- fold induction at 10 µM [4, 10]: 2.1
- fold induction at 40 µM [4, 11]: 1.5
- fold induction at 0.5 µM [4, 12]: 1.1
- fold induction at 2 µM [4, 13]: 1.3
- fold induction at 10 µM [4, 14]: 1.9
- fold induction at 40 µM [4, 15]: 1.5
- fold induction at 0.5 µM [4, 16]: 0.8
- fold induction at 2 µM [4, 17]: 1.1
- fold induction at 10 µM [4, 18]: 1.5
- fold induction at 40 µM [4, 19]: 1.7
